The compounds below were run against MAPK14 (human) (UniProt Q16539) (assay: Assessment of MAPK14 Kinase Activity).
MAPK14 (human), sequence (Q16539 whole entry, looked up): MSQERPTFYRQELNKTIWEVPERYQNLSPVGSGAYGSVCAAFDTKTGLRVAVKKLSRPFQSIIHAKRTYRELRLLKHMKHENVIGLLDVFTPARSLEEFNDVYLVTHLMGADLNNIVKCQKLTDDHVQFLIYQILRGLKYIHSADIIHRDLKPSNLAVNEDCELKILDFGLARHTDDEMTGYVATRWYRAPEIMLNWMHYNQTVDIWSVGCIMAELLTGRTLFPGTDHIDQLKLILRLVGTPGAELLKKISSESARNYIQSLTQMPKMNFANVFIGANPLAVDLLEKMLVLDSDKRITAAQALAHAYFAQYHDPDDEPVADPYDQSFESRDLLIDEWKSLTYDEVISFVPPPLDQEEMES

IC50 [nM] | Structure (SMILES)
> 10000 | COc1cccc(-c2nc3sccn3c2-c2nc(SC)ncc2-c2ccccc2)c1
10000 | CS(=O)(=O)c1nccc(-c2c(-c3ccc(F)c(F)c3)nc3sccn23)n1
87.1 | OCCC(CO)Nc1nccc(-c2c(-c3ccc(F)cc3)nc3sccn23)n1 (configuration not stated)
527 | Fc1ccc(-c2nc3sccn3c2-c2ccnc(N3CCCCC3)n2)cc1
10000 | Cc1ccc(-c2nc3sccn3c2-c2ccnc(S(C)(=O)=O)n2)cc1
7.26 | CC(C)(C)OC(=O)N1CCC[C@H]1CNc1nccc(-c2c(-c3ccc(F)cc3)nc3sccn23)n1
37.1 | C[C@@H](O)CNc1nccc(-c2c(-c3ccc(F)cc3)nc3occn23)n1
34.8 | C[C@@H](CO)Nc1nccc(-c2c(-c3ccc(F)cc3)nc3occn23)n1
10000 | COc1cccc(-c2nc3sccn3c2-c2ccnc(S(C)(=O)=O)n2)c1
8.96 | O[C@@H](CNc1nccc(-c2c(-c3ccc(F)cc3)nc3occn23)n1)c1ccccc1
890 | CCCCCOc1nccc(-c2c(-c3ccc(F)cc3)nc3sccn23)n1

Structure (SMILES) | IC50 [nM]
Fc1ccc(Cl)c(-c2nc3occn3c2-c2ccnc(N[C@@H]3CN4CCC3CC4)n2)c1 | 6.8

— the Kinase Knowledgebase extract (Sharma et al. 2016)
